Data as given in patent publication US8618151B2, “Inhibitors of HCV NS5A” (Presidio Pharmaceuticals, Inc., priority 2008, dated 2013).

These molecules were tested on HCV genotype 1b replicon (assay: HCV replicon assay (1b_Huh-Luc/Neo-ET cell line, luciferase readout)). Conditions: Hepatitis C virus, Huh-7, 72 h, read-out: Inhibition of HCV genotype 1b.
Type: cell-based
Method: Biological activity of the compounds of the invention was determined using an HCV replicon assay. The 1b_Huh-Luc/Neo-ET cell line persistently expressing a bicistronic genotype 1b replicon in Huh 7 cells was obtained from ReBLikon GMBH. This cell line was used to test compound inhibition using luciferase enzyme activity readout as a measurement of compound inhibition of replicon levels.
On Day 1 (the day after plating), each compound is added in triplicate to the cells. Plates incubated for 72 h prior to running the luciferase assay. Enzyme activity was measured using a Bright-Glo Kit (cat. number E2620) manufactured by Promega Corporation. The following equation was used to generate a percent control value for each compound. % Control=(Average Compound Value/Average Control)*100
The EC50 value was determined using GraphPad Prism and the following equation: Y=Bottom+(Top−Bottom)/1+10^((Log IC50−X)*HillSlope))
EC50 values of compounds are repeated several times in the replicon assay.

COC(=O)N[C@@H](C(=O)N1CCC[C@H]1c1nc(-c2cnc3cc(-c4ccc(-c5cnc([C@@H]6CCCN6C(=O)[C@H](NC(=O)OC)c6ccccc6)[nH]5)cn4)ccc3c2)c[nH]1)c1ccccc1 [compound 80] was tested. Which EC50 did it give?
Its EC50 is less than 1 nM.

For COC(=O)N[C@H](C(=O)N1CCC[C@H]1c1ncc(-c2ccc(-c3ccc4cc(-c5c[nH]c([C@@H]6CCCN6C(=O)[C@H](NC(=O)OC6CCOCC6)c6ccccc6)n5)cnc4c3)nc2)[nH]1)C(C)C [compound 81], which EC50 is on record?
The EC50 was less than 1 nM.

With COC(=O)N[C@H](C(=O)N1CCC[C@H]1c1ncc(-c2ccc(-c3ccc4cc(-c5c[nH]c([C@@H]6CCCN6C(=O)[C@H](NC(=O)OC(C)(C)C)c6ccccc6)n5)cnc4c3)nc2)[nH]1)C(C)C [compound 82] as the molecule, how does the EC50 read?
The EC50 was less than 1 nM.

For COC(=O)N[C@H](C(=O)N1CCC[C@H]1c1nc(-c2ccc3cc(-c4ccc(-c5cnc([C@@H]6CCCN6C(=O)[C@@H](NC(=O)OC)C(C)C)[nH]5)nc4)ccc3c2)c[nH]1)C(C)C [compound 83], which EC50 is on record?
The EC50 was less than 1 nM.

With COC(=O)N[C@H](C(=O)N1CCC[C@H]1c1nc(-c2ccc3cc(-c4ccc(-c5cnc([C@@H]6CCCN6C(=O)[C@@H](NC(=O)OC)C6CCOCC6)[nH]5)nc4)ccc3c2)c[nH]1)C(C)C [compound 84] as the molecule, how does the EC50 read?
Its EC50 is less than 1 nM.

With COC(=O)N[C@H](C(=O)N1CCC[C@H]1c1nc(-c2ccc3cc(-c4ccc(-c5cnc([C@@H]6CCCN6C(=O)[C@@H](NC(=O)OC)C(C)C)[nH]5)cc4C)ccc3c2)c[nH]1)C(C)C [compound 85] as the molecule, how does the EC50 read?
Its EC50 is less than 1 nM.

Which EC50 does the source give for COC(=O)N[C@H](C(=O)N1CCC[C@H]1c1nc(-c2ccc3cc(-c4ccc(-c5cnc([C@@H]6CCCN6C(=O)[C@@H](NC(=O)OC)C6CCOCC6)[nH]5)cc4C)ccc3c2)c[nH]1)C(C)C [compound 86] here?
The EC50 was less than 1 nM.

Which EC50 does the source give for COC(=O)N[C@H](C(=O)N1CCC[C@H]1c1ncc(-c2ccc(-c3ccc4cc(-c5c[nH]c([C@@H]6CCCN6C(=O)[C@H](NC(=O)OC)c6ccccc6)n5)ccc4c3)c(C)c2)[nH]1)C(C)C [compound 87] here?
The EC50 was less than 1 nM.

COC(=O)N[C@H](C(=O)N1CCC[C@H]1c1nc(-c2cnc3cc(-c4ccc(-c5cnc([C@@H]6CCCN6C(=O)[C@H](NC(=O)OC6CCOCC6)c6ccccc6)[nH]5)cc4)ccc3c2)c[nH]1)C(C)C [compound 88] was tested. Which EC50 did it give?
The EC50 was less than 1 nM.

COC(=O)N[C@H](C(=O)N1CCC[C@H]1c1nc(-c2cnc3cc(-c4ccc(-c5cnc([C@@H]6CCCN6C(=O)[C@H](NC(=O)OC6CCOCC6)c6ccccc6)[nH]5)cc4)ccc3c2)c[nH]1)C1CCOCC1 [compound 89] was tested. Which EC50 did it give?
Its EC50 is less than 1 nM.

COC(=O)N[C@H](C(=O)N1CCC[C@H]1c1ncc(-c2ccc(-c3ccc4cc(-c5c[nH]c([C@@H]6CCCN6C(=O)[C@H](NC(=O)OC)c6ccccc6)n5)ccc4n3)cc2)[nH]1)C1CCOCC1 [compound 90] was tested. Which EC50 did it give?
The EC50 was less than 1 nM.

Which EC50 does the source give for COC(=O)N[C@H](C(=O)N1CCC[C@H]1c1ncc(-c2ccc(-c3ccc4cc(-c5c[nH]c([C@@H]6CCCN6C(=O)[C@H](NC(=O)OC(C)(C)C)c6ccccc6)n5)ccc4n3)cc2)[nH]1)C1CCOCC1 [compound 91] here?
Its EC50 is less than 1 nM.

Which EC50 does the source give for COC(=O)N[C@H](C(=O)N1CCC[C@H]1c1ncc(-c2ccc(-c3ccc4cc(-c5c[nH]c([C@@H]6CCCN6C(=O)[C@H](NC(=O)OC6CCOCC6)c6ccccc6)n5)ccc4n3)cc2)[nH]1)C1CCOCC1 [compound 92] here?
Its EC50 is less than 1 nM.

How did the EC50 turn out when COC(=O)N[C@H](C(=O)N1CCC[C@H]1c1nc(-c2cnc3cc(-c4ccc(-c5cnc([C@@H]6CCCN6C(=O)[C@@H](NC(=O)OC)C(C)C)[nH]5)nc4)ccc3c2)c[nH]1)C(C)C [compound 93] was run?
The EC50 was less than 1 nM.

COC(=O)N[C@H](C(=O)N1CCC[C@H]1c1ncc(-c2ccc(-c3ccc4cc(-c5c[nH]c([C@@H]6CCCN6C(=O)[C@H](NC(=O)OC)c6ccccc6)n5)cnc4c3)cn2)[nH]1)C(C)C [compound 94] was tested. Which EC50 did it give?
The EC50 was less than 1 nM.

How did the EC50 turn out when COC(=O)N[C@H](C(=O)N1CCC[C@H]1c1ncc(-c2ccc(-c3ccc4cc(-c5c[nH]c([C@@H]6CCCN6C(=O)[C@@H](NC(=O)OC)C6CCOCC6)n5)cnc4c3)cn2)[nH]1)C(C)C [compound 95] was run?
The EC50 was less than 1 nM.

With COC(=O)N[C@H](C(=O)N1CCC[C@H]1c1nc(-c2ccc3nc(-c4ccc(-c5cnc([C@@H]6CCCN6C(=O)[C@@H](NC(=O)OC)C(C)C)[nH]5)cc4F)ccc3c2)c[nH]1)C(C)C [compound 96] as the molecule, how does the EC50 read?
The EC50 was less than 1 nM.

Which EC50 does the source give for COC(=O)N[C@@H](C(=O)N1CCC[C@H]1c1nc(-c2ccc3nc(-c4ccc(-c5cnc([C@@H]6CCCN6C(=O)[C@H](NC(=O)OC)c6ccccc6)[nH]5)cc4F)ccc3c2)c[nH]1)c1ccccc1 [compound 97] here?
Its EC50 is less than 1 nM.

For COC(=O)N[C@H](C(=O)N1CCC[C@H]1c1nc(-c2ccc3nc(-c4ccc(-c5cnc([C@@H]6CCCN6C(=O)[C@@H](NC(=O)OC)C6CCOCC6)[nH]5)cc4F)ccc3c2)c[nH]1)C1CCOCC1 [compound 98], which EC50 is on record?
Its EC50 is less than 1 nM.

Which EC50 does the source give for COC(=O)N[C@H](C(=O)N1CCC[C@H]1c1nc(-c2ccc3cc(-c4ccc(-c5cnc([C@@H]6CCCN6C(=O)[C@H](NC(=O)OC)c6ccccc6)[nH]5)cc4)ccc3c2)c[nH]1)C1CCOCC1 [compound 99] here?
Its EC50 is less than 1 nM.

How did the EC50 turn out when COC(=O)N[C@H](C(=O)N1CCC[C@H]1c1nc(-c2ccc3cc(-c4ccc(-c5cnc([C@@H]6CCCN6C(=O)[C@H](NC(=O)OC)c6ccccc6)[nH]5)cc4)ncc3c2)c[nH]1)C1CCOCC1 [compound 100] was run?
The EC50 was less than 1 nM.

How did the EC50 turn out when COC(=O)N[C@H](C(=O)N1CCC[C@H]1c1ncc(-c2ccc(-c3cc4ccc(-c5c[nH]c([C@@H]6CCCN6C(=O)[C@H](NC(=O)OC)c6ccccc6)n5)cc4cn3)cc2)[nH]1)C1CCOCC1 [compound 101] was run?
The EC50 was less than 1 nM.

Which EC50 does the source give for COC(=O)N[C@H](C(=O)N1CCC[C@H]1c1nc(-c2ccc3cc(-c4ccc(-c5cnc([C@@H]6CCCN6C(=O)[C@@H](NC(=O)OC)C(C)C)[nH]5)cc4)ccc3n2)c[nH]1)C(C)C [compound 102] here?
The EC50 was less than 1 nM.

Which EC50 does the source give for COC(=O)N[C@H](C(=O)N1CCC[C@H]1c1ncc(-c2ccc(-c3ccc4nc(-c5c[nH]c([C@@H]6CCCN6C(=O)[C@H](NC(=O)OC)c6ccccc6)n5)ccc4c3)cc2)[nH]1)C(C)C [compound 103] here?
The EC50 was less than 1 nM.

COC(=O)N[C@H](C(=O)N1CCC[C@H]1c1ncc(-c2ccc(-c3ccc4cc(-c5c[nH]c([C@@H]6CCCN6C(=O)[C@@H](NC(=O)OC)C6CCOCC6)n5)ccc4c3)c(C)c2)[nH]1)C(C)C [compound 104] was tested. Which EC50 did it give?
The EC50 was less than 1 nM.

How did the EC50 turn out when COC(=O)N[C@H](C(=O)N1CCC[C@H]1c1ncc(-c2ccc(-c3ccc4cc(-c5c[nH]c([C@@H]6CCCN6C(=O)[C@H](NC(=O)OC)c6ccccc6)n5)ccc4c3)cc2)[nH]1)C1CCOCC1 [compound 105] was run?
The EC50 was less than 1 nM.

Which EC50 does the source give for COC(=O)N[C@H](C(=O)N1CCC[C@H]1c1ncc(-c2ccc(-c3ccc4cc(-c5c[nH]c([C@@H]6CCCN6C(=O)[C@H](NC(=O)OC)c6ccccc6)n5)ccc4c3)c(F)c2)[nH]1)C1CCOCC1 [compound 106] here?
The EC50 was less than 1 nM.

With COC(=O)N[C@H](C(=O)N1CCC[C@H]1c1nc(-c2ccc3nc(-c4ccc(-c5cnc([C@@H]6CCCN6C(=O)[C@H](NC(=O)OC)c6ccccc6)[nH]5)cc4F)ccc3c2)c[nH]1)C(C)C [compound 107] as the molecule, how does the EC50 read?
Its EC50 is less than 1 nM.

Which EC50 does the source give for COC(=O)N[C@H](C(=O)N1CCC[C@H]1c1nc(-c2ccc3nc(-c4ccc(-c5cnc([C@@H]6CCCN6C(=O)[C@@H](NC(=O)OC)C6CCOCC6)[nH]5)c(F)c4)ccc3c2)c[nH]1)C1CCOCC1 [compound 108] here?
Its EC50 is less than 1 nM.

COC(=O)N[C@@H](C(=O)N1CCC[C@H]1c1nc(-c2ccc3nc(-c4ccc(-c5cnc([C@@H]6CCCN6C(=O)[C@H](NC(=O)OC)c6ccccc6)[nH]5)c(F)c4)ccc3c2)c[nH]1)c1ccccc1 [compound 109] was tested. Which EC50 did it give?
Its EC50 is less than 1 nM.

COC(=O)N[C@H](C(=O)N1CCC[C@H]1c1nc(-c2ccc3cc(-c4ccc(-c5cnc([C@@H]6CCCN6C(=O)[C@H](NC(=O)OC)c6ccsc6)[nH]5)cc4)ccc3c2)c[nH]1)C1CCOCC1 [compound 110] was tested. Which EC50 did it give?
Its EC50 is less than 1 nM.

For COC(=O)N[C@H](C(=O)N1CCC[C@H]1c1nc(-c2ccc3cc(-c4ccc(-c5cnc([C@@H]6CCCN6C(=O)[C@H](NC(=O)OC)c6ccc(F)cc6)[nH]5)cc4)ccc3c2)c[nH]1)C1CCOCC1 [compound 111], which EC50 is on record?
Its EC50 is less than 1 nM.

COC(=O)N[C@H](C(=O)N1CCC[C@H]1c1nc(-c2ccc3cc(-c4ccc(-c5cnc([C@@H]6CCCN6C(=O)[C@@H](NC(=O)OC6CCOCC6)c6ccccc6)[nH]5)cc4)ccc3c2)c[nH]1)C1CCOCC1 [compound 112] was tested. Which EC50 did it give?
Its EC50 is less than 1 nM.

With COC(=O)N[C@H](C(=O)N1CCC[C@H]1c1nc(-c2ccc3cc(-c4ccc(-c5cnc([C@@H]6CCCN6C(=O)[C@H](NC(=O)OC6CCOCC6)c6ccccc6)[nH]5)cc4)ccc3c2)c[nH]1)C1CCOCC1 [compound 113] as the molecule, how does the EC50 read?
Its EC50 is less than 1 nM.

For COC(=O)N[C@H](C(=O)N1CCC[C@H]1c1nc(-c2ccc3cc(-c4ccc(-c5cnc([C@@H]6CCCN6C(=O)[C@H](NC(=O)OC)c6ccccc6)[nH]5)cc4F)ccc3c2)c[nH]1)C1CCOCC1 [compound 114], which EC50 is on record?
The EC50 was less than 1 nM.

With COC(=O)N[C@H](C(=O)N1CCC[C@H]1c1ncc(-c2ccc3cc(-c4ccc(-c5cnc([C@@H]6CCCN6C(=O)[C@H](NC(=O)OC)c6ccccc6)[nH]5)cc4)ccc3c2)[nH]1)[C@@H](C)OC [compound 115] as the molecule, how does the EC50 read?
Its EC50 is less than 1 nM.

How did the EC50 turn out when COC(=O)N[C@H](C(=O)N1CCC[C@H]1c1ncc(-c2ccc3cc(-c4ccc(-c5cnc([C@@H]6CCCN6C(=O)[C@@H](c6ccccc6)N6CCOCC6)[nH]5)cc4)ccc3c2)[nH]1)C(C)C [compound 116] was run?
The EC50 was less than 1 nM.

Which EC50 does the source give for COC(=O)N[C@H](C(=O)N1CCC[C@H]1c1ncc(-c2ccc3cc(-c4ccc(-c5cnc([C@@H]6CCCN6C(=O)[C@H](NC(=O)OC6CCOCC6)c6ccccc6)[nH]5)cc4)ncc3c2)[nH]1)C1CCOCC1 [compound 117] here?
Its EC50 is less than 1 nM.

How did the EC50 turn out when COC(=O)N[C@H](C(=O)N1CCC[C@H]1c1ncc(-c2ccc3cc(-c4ccc(-c5cnc([C@@H]6CCCN6C(=O)[C@H](NC(=O)OC(C)(C)C)c6ccccc6)[nH]5)cc4)ncc3c2)[nH]1)C1CCOCC1 [compound 118] was run?
The EC50 was less than 1 nM.
